Results as given in paper PMC5676566 (Nature chemical biology, 2017).

Biological target: BG505 Env (pseudovirus) (Human immunodeficiency virus 1, UniProt Q2N0S5)
Experiment: pseudovirus neutralization, TZM-bl cells, luciferase
Assay type: cell-based
Conditions: 1% DMSO; separate panel assay printed too (Supplementary Table 1)

IC50: 1190 nM
SMILES: COc1ccnc2[nH]cc(C(=O)C(=O)N3CCN(C(=O)c4ccccc4)C[C@H]3C)c12 [BMS-378806]
